{"source": "paper PMC8151276", "about": "“An Integrated Approach toward NanoBRET Tracers for Analysis of GPCR Ligand Engagement” (Molecules, 2021)", "assay_type_in_all_cases": "binding", "key": {"[1]": {"target": "T1, ADRB1 (Homo sapiens, UniProt P08588)", "T1 construct": "purchased Promega (in-house HiBiT-GPCR construct library, NanoBRET)", "T1 sequence (P08588 whole entry)": "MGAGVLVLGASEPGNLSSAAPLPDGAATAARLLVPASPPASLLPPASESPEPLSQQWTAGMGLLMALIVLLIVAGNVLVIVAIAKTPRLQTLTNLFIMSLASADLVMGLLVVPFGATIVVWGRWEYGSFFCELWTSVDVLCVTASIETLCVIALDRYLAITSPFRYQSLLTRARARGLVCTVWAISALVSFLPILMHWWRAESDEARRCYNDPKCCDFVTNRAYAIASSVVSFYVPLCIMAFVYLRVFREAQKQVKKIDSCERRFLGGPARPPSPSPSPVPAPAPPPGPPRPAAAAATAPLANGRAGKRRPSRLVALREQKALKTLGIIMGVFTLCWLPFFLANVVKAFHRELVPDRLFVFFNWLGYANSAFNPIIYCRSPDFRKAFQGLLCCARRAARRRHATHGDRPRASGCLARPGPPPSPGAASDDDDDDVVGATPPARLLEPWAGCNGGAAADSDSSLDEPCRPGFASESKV", "test": "NanoBRET screen HiBiT-ADRB1 in HEK293", "settings": "ADRB1"}, "[2]": {"target": "T2, NMUR1 (Homo sapiens, UniProt Q9HB89)", "T2 construct": "purchased Promega (in-house HiBiT-GPCR construct library, NanoBRET)", "T2 sequence (Q9HB89 1-426)": "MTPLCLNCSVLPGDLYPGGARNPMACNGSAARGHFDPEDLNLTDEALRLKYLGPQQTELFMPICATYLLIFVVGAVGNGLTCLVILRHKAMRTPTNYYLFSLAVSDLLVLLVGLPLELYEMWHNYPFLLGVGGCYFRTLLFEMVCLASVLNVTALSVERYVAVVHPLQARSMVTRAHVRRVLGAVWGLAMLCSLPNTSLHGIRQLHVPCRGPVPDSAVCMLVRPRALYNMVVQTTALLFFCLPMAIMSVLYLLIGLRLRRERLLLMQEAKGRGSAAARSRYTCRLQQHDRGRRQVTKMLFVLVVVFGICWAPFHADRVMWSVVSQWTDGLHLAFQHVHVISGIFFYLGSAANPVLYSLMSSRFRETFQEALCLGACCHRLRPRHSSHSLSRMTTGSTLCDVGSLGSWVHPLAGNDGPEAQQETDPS", "test": "NanoBRET screen HiBiT-NMUR1 in HEK293", "settings": "NMUR1", "description": "(§1) Each tracer candidate was screened across the entire library of HiBiT-GPCR constructs using NanoBRET as the detection modality. As depicted in Figure 4A, the specificity of interactions was evaluated through decrease in BRET due to competitive displacement of a bound tracer by excess parental compound. Each tracer was analyzed for binding to each HiBiT-GPCR fusion in the absence and in the presence of competing parental compound. Briefly, HEK293 cells were transfected with HiBiT-GPCR constructs diluted into promoterless DNA to reduce expression and maximize translocation to the cell surface. Each tracer candidate was then screened at concentrations of 1 μM and 0.1 μM across cells expressing these fusions. Cells were treated for 1.5 h with tracer either alone or in the presence of 20 μM competing parental compound (i.e., control). BRET was measured upon addition of purified LgBiT and subsequent complementation with HiBiT genetically fused to a GPCR. The specificity of interactions was assessed through a decrease in BRET signal due to competitive displacement of the bound tracer. To further gauge the robustness of these interactions, the fold response over the control (i.e., BRETtracer/BRETcontrol) was calculated. We chose a 1.5-fold response, which translates to ≥7-fold signal over noise as the minimal threshold required to score an interaction as positive. […]. Below we highlight the screening results obtained for our exemplary fluorescent tracers based on Clozapine, Amitriptyline and AZD1283.\n(§2) HiBiT-GPCR DNA constructs were diluted in 10 mM Tris pH 8 to a final concentration of 0.01 μg/μL, arrayed in 96-well plates and stored at −20 °C. For transfection, HEK293 cells were suspended in Opti-MEM (without phenol red) supplemented with 2% fetal bovine serum (Seradigm) and 100 units/mL penicillin–streptomycin (Gibco) at a final concentration of 220,000 cells/mL and dispensed into white 96-well plates at 90 μL/well. Subsequent transfections and screens were carried using an Agilent Bravo Automated Liquid Handling Platform. First, the 96-well HiBiT DNA arrays were diluted 25-fold in Opti-MEM (without serum or phenol red) to a final concentration of 0.0004 μg/μL and 20 μL of the diluted DNAs were transferred into new 96-well plates. Next, promoterless carrier DNA (1 μg/μL) was diluted 25-fold (0.04 μg/μL) and then dispensed into the diluted arrays at 20 μL/well. Following brief mixing, Viafect transfection reagent (Promega) diluted 16-fold into Opti-MEM was dispensed into the plates at 40 μL/well. After mixing by pipetting, plates were incubated for 10 min on the pipetting station deck. The DNA-transfection reagent complexes were then added to plates containing cells. To facilitate the screen, 10 μL of DNA-transfection reagent complexes were added in duplicates to the top 4 and bottom 4 rows, resulting in two identical 48-well arrays per plate. Plates with transfected cells were incubated for 18–20 h at 37 °C/5% CO2. A screen of each tracer across the entire library using two different concentrations requires duplicate plates of transfected cells. Depending on the number of tracers being screened, transfections can be scaled up using the same ratios. The next day, for each tracer, four 20× screening solutions in tracer dilution buffer (Promega) were prepared: two duplicates at final concentration of 20 μM and two duplicates at a final concentration of 2 μM. A competing unmodified compound was added to one of each duplicate at a final concentration of 400 μM. The four resulting solutions were diluted 4-fold in Opti-MEM without serum or phenol red to generate 5× solutions (5 µM and 0.5 µM tracer +/− 100 μM competing compound). To screen the library, a BioTek MultiFlo FX liquid dispenser was used to dispense 22.5 µL of tracer solution to the top 4 rows and 22.5 µL tracer + competing compound solution to the 4 bottom rows. Plates were briefly mixed on an orbital shaker and incubated for 1.5 h at room temperature. […]"}, "[3]": {"target": "T3, AVPR1B (Homo sapiens, UniProt P47901)", "T3 construct": "purchased Promega (in-house HiBiT-GPCR construct library, NanoBRET)", "T3 sequence (P47901 1-424)": "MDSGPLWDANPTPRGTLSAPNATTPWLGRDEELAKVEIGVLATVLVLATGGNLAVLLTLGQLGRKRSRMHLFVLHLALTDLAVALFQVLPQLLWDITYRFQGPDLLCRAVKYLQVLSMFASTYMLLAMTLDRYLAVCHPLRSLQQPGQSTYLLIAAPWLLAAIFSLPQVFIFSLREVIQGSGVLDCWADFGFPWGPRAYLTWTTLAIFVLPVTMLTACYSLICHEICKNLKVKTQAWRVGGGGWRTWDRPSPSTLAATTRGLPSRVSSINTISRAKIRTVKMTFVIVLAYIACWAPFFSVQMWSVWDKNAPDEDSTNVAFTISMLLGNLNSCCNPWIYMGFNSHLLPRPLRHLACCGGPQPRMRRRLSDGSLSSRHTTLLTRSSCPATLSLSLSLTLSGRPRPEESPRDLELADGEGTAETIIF", "test": "NanoBRET screen HiBiT-AVPR1B in HEK293", "settings": "AVPR1B", "description": "as §1, §2"}, "[4]": {"target": "T4, OPRK1 (Homo sapiens, UniProt P41145)", "T4 construct": "purchased Promega (in-house HiBiT-GPCR construct library, NanoBRET)", "T4 sequence (P41145 whole entry)": "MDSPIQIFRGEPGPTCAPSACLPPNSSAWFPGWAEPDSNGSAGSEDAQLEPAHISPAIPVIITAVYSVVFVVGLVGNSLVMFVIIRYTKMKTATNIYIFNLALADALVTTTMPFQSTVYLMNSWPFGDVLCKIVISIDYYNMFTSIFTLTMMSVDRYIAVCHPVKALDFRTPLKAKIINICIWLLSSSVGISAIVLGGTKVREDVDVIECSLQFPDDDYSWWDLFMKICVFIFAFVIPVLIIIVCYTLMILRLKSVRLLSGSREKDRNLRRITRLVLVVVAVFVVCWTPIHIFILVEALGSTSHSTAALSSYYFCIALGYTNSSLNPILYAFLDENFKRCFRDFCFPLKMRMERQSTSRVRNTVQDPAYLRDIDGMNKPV", "test": "NanoBRET screen HiBiT-OPRK1 in HEK293", "settings": "OPRK1", "procedure,_shortened": "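Competitive displacement format: low-expressing HiBiT-receptor HEK293 cells incubated 1.5 h at room temperature with tracer (1 or 0.1 μM final) ± 20 μM unlabelled parental compound, then complemented with extracellular LgBiT for NanoBRET.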"}, "[5]": {"target": "T5, PTAFR (Homo sapiens, UniProt P25105)", "T5 construct": "purchased Promega (in-house HiBiT-GPCR construct library, NanoBRET)", "T5 sequence (P25105 whole entry)": "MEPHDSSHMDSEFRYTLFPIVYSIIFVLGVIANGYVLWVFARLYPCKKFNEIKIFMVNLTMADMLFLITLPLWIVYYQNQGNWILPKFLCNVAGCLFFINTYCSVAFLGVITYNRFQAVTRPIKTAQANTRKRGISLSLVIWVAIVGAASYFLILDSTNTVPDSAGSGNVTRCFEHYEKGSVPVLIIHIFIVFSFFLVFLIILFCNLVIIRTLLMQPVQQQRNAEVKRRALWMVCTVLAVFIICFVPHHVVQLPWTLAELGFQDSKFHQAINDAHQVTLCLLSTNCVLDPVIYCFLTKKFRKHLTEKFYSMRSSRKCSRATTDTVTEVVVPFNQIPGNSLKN", "test": "NanoBRET screen HiBiT-PTAFR in HEK293", "settings": "PTAFR", "description": "as §1, §2"}}}
{"smiles": "CCCn1c(=O)c2[nH]c(-c3ccc(OCC(=O)NCCNC(=O)CCOCCNC(=O)c4ccc(CNC(=O)CCc5ccc6n5[B-](F)(F)[N+]5=C(c7ccc[nH]7)C=CC5=C6)cc4)cc3)nc2n(CCC)c1=O", "note": "[XAC-3-NB590]", "values": [{"measurement": "NanoBRET Fold Response", "setting": "[1]; tracer 0.1μM", "result": 1.07}, {"measurement": "NanoBRET Fold Response", "setting": "[1]; tracer 1μM", "result": 1.05}, {"measurement": "NanoBRET Fold Response", "setting": "[2]; tracer 0.1μM", "result": 0.91}, {"measurement": "NanoBRET Fold Response", "setting": "[2]; tracer 1μM", "result": 1.00}, {"measurement": "NanoBRET Fold Response", "setting": "[3]; tracer 0.1μM", "result": 0.90}, {"measurement": "NanoBRET Fold Response", "setting": "[3]; tracer 1μM", "result": 1.21}, {"measurement": "NanoBRET Fold Response", "setting": "[4]; tracer 0.1μM", "result": 0.97}, {"measurement": "NanoBRET Fold Response", "setting": "[4]; tracer 1μM", "result": 1.34}, {"measurement": "NanoBRET Fold Response", "setting": "[5]; tracer 0.1μM", "result": 0.90}, {"measurement": "NanoBRET Fold Response", "setting": "[5]; tracer 1μM", "result": 1.15}]}
